Experimental data taken from patent US9676789B2, “Aminated derivative of homoharringtonine, preparation method therefor, and application thereof” (HANGZHOU BENSHENG PHARMACEUTICAL CO., LTD., priority 2011, dated 2017).
≈ marks a conversion by molar mass, not a printed value.

What was measured:
[1] = tested on: Jurkat (acute lymphoblastic leukemia, ALL); assay: MTT leukemia cell growth inhibition, 72 h; format: cell-based, human; conditions: Homo sapiens
Description: (§1) Leukemia cell lines: K562/adr (drug-resistant, chronic myeloid leukemia, CML), NB4 (acute promyelocytic leukemia, AML), Kasumi-1 (acute myeloid leukemia M2 type, AML-M2), Jurkat (acute lymphoblastic leukemia, ALL), all of which are donated by Cancer Research Institute of Zhejiang University, China; and H9 (acute lymphoblastic leukemia, ALL), which is purchased from China Center for Type Culture Collection.
(§2) Obtaining 6000 well-growing leukemia cells and inoculating them into wells of a 96-well cell culture plate. The culture medium is the 1640 cell culture medium containing 10% fetal bovine serum. After adding the homoharringtonine derivatives of different concentrations and mixing uniformly, placing the plate in a carbon dioxide cell incubator (5% CO2) at 37° C. and incubating for 72 hours. Then the viable cell concentration is determined by the MTT method. In this experiment, the cell viability in control group (not treated with any compound) is set as 100%.

[2] = tested on: NB4 (acute promyelocytic leukemia, AML); assay: MTT leukemia cell growth inhibition, 72 h; format: cell-based, human; conditions: Homo sapiens, NB4, 72 h
Description: as §1, §2

[3] = tested on: H9 (acute lymphoblastic leukemia, ALL); assay: MTT leukemia cell growth inhibition, 72 h; format: cell-based, human; conditions: Homo sapiens, H9, 72 h
Description: as §1, §2

[4] = tested on: K562/adr (drug-resistant, chronic myeloid leukemia, CML); assay: MTT leukemia cell growth inhibition, 72 h; format: cell-based, human; conditions: Homo sapiens, K562/Adr
Description: as §1, §2

[5] = tested on: Kasumi-1 (acute myeloid leukemia M2 type, AML-M2); assay: MTT leukemia cell growth inhibition, 72 h; format: cell-based, human; conditions: Homo sapiens, Kasumi-1, 72 h
Description: as §1, §2

[6] = tested on: Huh7 (human liver cancer cell); assay: MTT solid tumor cell growth inhibition, 72 h; format: cell-based; conditions: Homo sapiens, Huh-7, Huh7, 72 h
Experimental: (§3) Human solid tumor cell lines: Hep-2 ([…]), A549 (human lung cancer), CaES-17 (esophageal cancer cell), PC-3 (prostate cancer), CNE (nasopharyngeal carcinoma cell), and SK-OV-3 (ovarian cancer cell), all of which are purchased from China Center For Type Culture Collection; RKO (human colon adenocarcinoma cell), MGC 803 (human gastric cancer cell), MG63 (osteosarcoma) and U87 MG (malignant glioma cell), all of which are purchased from Fuxiang Bio-tech Co. Ltd., Shanghai, China; PANC-1 (pancreatic cancer), Huh7 (human liver cancer cell), Becap37 (human breast cancer cell), and Hela (human cervical cancer cell), all of which are donated by Cancer Research Institute of Zhejiang University, China.
(§4) Obtaining 4000 well-growing human solid tumor cells and inoculating them into wells of a 96-well cell culture plate. The culture medium is DMEM High Glucose cell culture medium containing 10% fetal bovine serum. The plate is placed in a carbon dioxide cell incubator (5% CO2) at 37° C. and incubating for 24 hours. After adding the homoharringtonine derivatives of different concentration and mixing uniformly, the plate is placed in a carbon dioxide cell incubator (5% CO2) at 37° C. and incubating for 72 hours. Then the viable cell concentration is determined by the MTT method and the cell viability (%) after drug treatment is calculated. In this experiment, the cell viability of control group (not treated with any compound) is set as 100%.

[7] = tested on: Hep-2 (human hepatocellular carcinoma); assay: MTT solid tumor cell growth inhibition, 72 h; format: cell-based; conditions: Homo sapiens, HEp-2, Hep2, 72 h
Experimental: as §3, §4

[8] = tested on: A549 (human lung cancer); assay: MTT solid tumor cell growth inhibition, 72 h; format: cell-based; conditions: Homo sapiens, A549, 72 h
Experimental: as §3, §4

[9] = tested on: Becap37 (human breast cancer cell); assay: MTT solid tumor cell growth inhibition, 72 h; format: cell-based; conditions: Homo sapiens, Becap37, 72 h
Experimental: as §3, §4

[10] = tested on: MGC 803 (human gastric cancer cell); assay: MTT solid tumor cell growth inhibition, 72 h; format: cell-based; conditions: Homo sapiens, MGC 803, 72 h
Experimental: as §3, §4

[11] = tested on: Hela (human cervical cancer cell); assay: MTT solid tumor cell growth inhibition, 72 h; format: cell-based; conditions: Homo sapiens, HeLa
Experimental: as §3, §4

[12] = tested on: RKO (human colon adenocarcinoma cell); assay: MTT solid tumor cell growth inhibition, 72 h; format: cell-based; conditions: Homo sapiens
Experimental: as §3, §4

[13] = tested on: RPMI8226 (multiple myeloma); assay: MTT multiple myeloma cell growth inhibition, 72 h; format: cell-based, human; conditions: Homo sapiens, RPMI-8226, RPMI8226, 72 h
Experimental: Multiple myeloma and lymphoma cell lines: RPMI8226 (multiple myeloma), purchased from Fuxiang Bio-tech Co. Ltd., Shanghai, China.
as §2, with “method.” for “method. In this experiment, the cell viability in control group (not treated with any compound) is set as 100%.”

[14] = tested on: SK-OV-3 (ovarian cancer cell); assay: MTT solid tumor cell growth inhibition, 72 h; format: cell-based, human; conditions: Homo sapiens, SK-OV-3, 72 h
Experimental: as §3, §4

[15] = tested on: CNE (nasopharyngeal carcinoma cell); assay: MTT solid tumor cell growth inhibition, 72 h; format: cell-based, human; conditions: Homo sapiens
Experimental: as §3, §4

[16] = tested on: MG63 (osteosarcoma); assay: MTT solid tumor cell growth inhibition, 72 h; format: cell-based, human; conditions: Homo sapiens, MG 63, 72 h
Experimental: as §3, §4

[17] = tested on: U87 MG (malignant glioma cell); assay: MTT solid tumor cell growth inhibition, 72 h; format: cell-based, human; conditions: Homo sapiens, U-87 MG
Experimental: as §3, §4

[18] = tested on: PC-3 (prostate cancer); assay: MTT solid tumor cell growth inhibition, 72 h; format: cell-based, human; conditions: Homo sapiens, PC-3, 72 h
Experimental: as §3, §4

[19] = tested on: PANC-1 (pancreatic cancer); assay: MTT solid tumor cell growth inhibition, 72 h; format: cell-based, human; conditions: Homo sapiens, PANC-1, 72 h
Experimental: as §3, §4

[20] = tested on: CaES-17 (esophageal cancer cell); assay: MTT solid tumor cell growth inhibition, 72 h; format: cell-based, human; conditions: Homo sapiens, CaEs17, CaES-17, 72 h
Experimental: as §3, §4

For `COC1=C[C@]23CCCN2CCc2cc4c(cc2[C@@H]3[C@@H]1OC(=O)[C@@](O)(CCCC(C)(C)O)CC(=O)N1CCN(C(C)C)CC1)OCO4` [BS-HH-034], the IC50 ([1]; read-out: IC50) was 0.46 µg/mL (≈ 0.717 µM), the IC90 ([1]; read-out: IC90) was 16 µg/mL (≈ 24.9 µM) and the IC50 ([2]; read-out: IC50) was 0.48 µg/mL (≈ 0.748 µM). For the same molecule, the IC90 ([2]; read-out: IC90) was 2.3 µg/mL (≈ 3.58 µM), the IC50 ([3]; read-out: IC50) was 0.6 µg/mL (≈ 0.935 µM) and the IC90 ([3]; read-out: IC90) was 2.7 µg/mL (≈ 4.21 µM). It also gave an IC50 ([4]; read-out: IC50) of 4.53 µg/mL (≈ 7.06 µM), an IC90 ([4]; read-out: IC90) of 16 µg/mL (≈ 24.9 µM) and an IC50 ([5]; read-out: IC50) of 0.31 µg/mL (≈ 0.483 µM). For the same molecule, the IC90 ([5]; read-out: IC90) was 1.77 µg/mL (≈ 2.76 µM), the IC50 ([6]; read-out: IC50) was 1.05 µg/mL (≈ 1.64 µM) and the IC90 ([6]; read-out: IC90) was over 16 µg/mL. It also gave an IC50 ([7]; read-out: IC50) of 1.29 µg/mL (≈ 2.01 µM), an IC90 ([7]; read-out: IC90) of over 16 µg/mL and an IC50 ([8]; read-out: IC50) of 1.74 µg/mL (≈ 2.71 µM). The IC90 ([8]; read-out: IC90) was over 16 µg/mL, the IC50 ([9]; read-out: IC50) was 0.81 µg/mL (≈ 1.26 µM) and the IC90 ([9]; read-out: IC90) was over 16 µg/mL. The IC50 ([10]; read-out: IC50) was 0.81 µg/mL (≈ 1.26 µM), the IC90 ([10]; read-out: IC90) was 11.8 µg/mL (≈ 18.4 µM) and the IC50 ([11]; read-out: IC50) was 1.97 µg/mL (≈ 3.07 µM). It also gave an IC90 ([11]; read-out: IC90) of over 16 µg/mL, an IC50 ([12]; read-out: IC50) of 0.18 µg/mL (≈ 0.28 µM) and an IC90 ([12]; read-out: IC90) of 1.25 µg/mL (≈ 1.95 µM). For the same molecule, the IC50 ([13]; read-out: IC50) was 0.47 µg/mL (≈ 0.732 µM), the IC90 ([13]; read-out: IC90) was 3.72 µg/mL (≈ 5.8 µM) and the IC50 ([14]; read-out: IC50) was 2.81 µg/mL (≈ 4.38 µM). For the same molecule, the IC90 ([14]; read-out: IC90) was over 16 µg/mL, the IC50 ([15]; read-out: IC50) was 0.49 µg/mL (≈ 0.763 µM) and the IC90 ([15]; read-out: IC90) was 16 µg/mL (≈ 24.9 µM). For the same molecule, the IC50 ([16]; read-out: IC50) was 0.32 µg/mL (≈ 0.499 µM), the IC90 ([16]; read-out: IC90) was 16 µg/mL (≈ 24.9 µM) and the IC50 ([17]; read-out: IC50) was 0.89 µg/mL (≈ 1.39 µM). It also gave an IC90 ([17]; read-out: IC90) of 5.74 µg/mL (≈ 8.94 µM), an IC50 ([18]; read-out: IC50) of 0.91 µg/mL (≈ 1.42 µM) and an IC90 ([18]; read-out: IC90) of over 16 µg/mL. It also gave an IC50 ([19]; read-out: IC50) of 1.94 µg/mL (≈ 3.02 µM), an IC90 ([19]; read-out: IC90) of over 16 µg/mL and an IC50 ([20]; read-out: IC50) of 1.91 µg/mL (≈ 2.98 µM). The IC90 ([20]; read-out: IC90) was 16 µg/mL (≈ 24.9 µM).
